Values of other authors as cited in patent US20070190209A1, “All natural multivitamin and multimineral dietary supplement formulations for enhanced absorption and biological utilization” (Mannatech, Inc., priority 2006, published 2007).
Read-outs that look alike come from different tables or passages of the source.

What was measured:
[1] = tested on: phase II detoxifying enzymes; conditions: glutathione transferases, NAD(P)H:quinone reductases, epoxide hydrolases; literature
osteoclasts = conditions: Rao, et al. (2003)
[2] = tested on: human cytosolic glutathione S-transferases (GSTs); conditions: van Haften, et al. (2002, 2003)
[3] = tested on: intestinal glucuronidation
thyroid gland of rats = conditions: Radovic, et al. (2005)
[4] = tested on: mammalian glutathione transferases; conditions: Kulkarni and Kulkarni (1995)
bone components = conditions: in vitro, combined with zinc; Uchiyama, et al. (2005)
[5] = by decreasing or eliminating intestinal glucuronidation, Mizuma and Awazu (2004)

Compound: CSCCCCC(=NOS(=O)(=O)O)S[C@@H]1O[C@H](CO)[C@@H](O)[C@H](O)[C@H]1O [glucoerucin]
- induction of phase II detoxifying enzymes [1]: potent inducers

Compound: CC(C)=CCC/C(C)=C/C=C/C(C)=C/C=C/C(C)=C/C=C/C=C(C)/C=C/C=C(C)/C=C/C=C(\C)CCC=C(C)C [lycopene]
- formation of osteoclasts and osteoclastic mineral resorption (osteoclasts): prevented the formation of osteoclasts and osteoclastic mineral resorption

Compound: tocopherols
- activity of human cytosolic GSTs [2]: inhibited

Compound: tocotrieneols
- activity of human cytosolic GSTs [2]: inhibited

Compound: O=C(O[C@@H]1Cc2c(O)cc(O)cc2O[C@@H]1c1cc(O)c(O)c(O)c1)c1cc(O)c(O)c(O)c1 [epigallocatechin galleate (ECGC), epigallocatechin galleate]
- absorption of model drug alpha-napthol [3]: increase the absorption

Compound: Oc1cc(O)c2c(c1)O[C@H](c1ccc(O)c(O)c1)[C@H](O)C2 [epicatechin]
- absorption of model drug alpha-napthol [3, 5]: increase the absorption

Compound: O=c1c(O)c(-c2ccc(O)c(O)c2)oc2cc(O)cc(O)c12 [quercetin]
- absorption of model drug alpha-napthol [3, 5]: increase the absorption

Compound: C[S+]([O-])CCCC/C(=N\OS(=O)(=O)O)S[C@@H]1O[C@H](CO)[C@@H](O)[C@H](O)[C@H]1O (stereo partly shown) [glucoraphanin]
- induction of phase II detoxifying enzymes [1]: potent inducers

Compound: COc1cc(O)c(CC=C(C)C)c(O)c1C(=O)/C=C/c1ccc(O)cc1 [xanthohumol]
- uptake of iodine into the thyroid gland (thyroid gland of rats): stimulates the uptake of iodine

Compound: O=c1cc(-c2ccccc2)oc2cc(O)cc(O)c12 [chrysin]
- absorption of model drug alpha-napthol [3, 5]: increase the absorption

Compound: vitamin A
- inhibition of mammalian glutathione transferases [4]: inhibit mammalian glutathione transferases at low concentrations

Compound: CC1=C(/C=C/C(C)=C/C=C/C(C)=C/C=C/C=C(C)/C=C/C=C(C)/C=C/C2=C(C)C[C@@H](O)CC2(C)C)C(C)(C)CCC1 [beta-cryptoxanthin]
- anabolic effects on bone components (bone components): synergistic anabolic effects

Compound: Cc1c(C)c2c(c(C)c1O)CC[C@@](C)(CCC[C@H](C)CCC[C@H](C)CCCC(C)C)O2 [alpha-tocopherol]
- activity of human cytosolic GSTs [2]: inhibited
